{"source": "patent US20190239509A1", "about": "“METHOD OF CONTROLLING PLANTS” (SYNGENTA PARTICIPATIONS AG, priority 2016, published 2019)", "type_in_all_cases": "in vivo", "key": {"[1]": {"test_system": "Amaranthus viridis (AMAVI)", "assay": "B2 drilled field trial Brazil, post-emergence, AMAVI", "settings": "100=total damage, 0=no damage; for AMAVI 7DAA Observed: 7 days after application; for AMAVI 30 DAA Observed: 30 days after application", "experimental": "(§1) Seeds of a variety of test species were used in drilled field trials to look at the control of important weed species present in corn crops as well as the effect on soybean (a volunteer crop in corn). Trials were carried out in Brazil in the summer season.\n(§2) Plot size was 10-12 m^2, and two replicates were carried out per treatment. Plants were treated post-emergence at the 4 leaf stage. Fungicides and insecticides were used as necessary for plant health. The test was evaluated at 7 and 30 days after application (Amaranthus viridis (AMAVI), Bidens pilosa (BIDPI), Euphorbia heterophylla (EPPHL)) and 9 and 37 days after application (Brachiaria plantaginea (BRAPL) and soybean (Glycine max GLXMA) with 100=total damage to plant and 0=no damage to plant.\n(§3) Expected results were calculated using the Colby Formula."}, "Bidens pilosa (BIDPI)": {"test_system": "Bidens pilosa (BIDPI)", "assay": "B2 drilled field trial Brazil, post-emergence, BIDPI", "settings": "100=total damage, 0=no damage; for BIDPI 7DAA Observed: 7 days after application; for BIDPI 30 DAA Observed: 30 days after application", "experimental": "as §1, §2, §3"}, "[2]": {"test_system": "Euphorbia heterophylla (EPPHL)", "assay": "B2 drilled field trial Brazil, post-emergence, EPPHL", "settings": "100=total damage, 0=no damage; for EPPHL 7DAA Observed: 7 days after application; for EPPHL 30 DAA Observed: 30 days after application", "experimental": "as §1, §2, §3"}, "[3]": {"test_system": "Brachiaria plantaginea (BRAPL)", "assay": "B2 drilled field trial Brazil, post-emergence, BRAPL", "settings": "100=total damage, 0=no damage; for BRAPL 9DAA Observed: 9 days after application; for BRAPL 37 DAA Observed: 37 days after application", "experimental": "as §1, §2, §3"}, "[4]": {"test_system": "soybean (Glycine max GLXMA)", "assay": "B2 drilled field trial Brazil, post-emergence, soybean", "settings": "100=total damage, 0=no damage; for GLXMA 9DAA Observed: 9 days after application; for GLXMA 37 DAA Observed: 37 days after application", "experimental": "as §1, §2, §3"}, "[5]": {"test_system": "Amaranthus retroflexus (AMARE)", "assay": "B3 drilled field trial Brazil, post-emergence, AMARE", "settings": "28 days after application, 100=total damage, 0=no damage", "experimental": "(§4) Seeds of a variety of test species were used in drilled field trials to look at the control of important weed species present in corn crops as well as the effect on soybean (a volunteer crop in corn). Trials were carried out in Brazil in the summer season and the second season.\n(§5) Plot size was 10-15 m^2, and two replicates were carried out per treatment. Plants were treated post-emergence between the 2 and 4 leaf stage. Species tested were Amaranthus retroflexus (AMARE), Ipomoea grandifolia (IAQGR), Digitaria horizontalis (DIGHO), Bidens pilosa (BIDPI), Eleusine indica (ELEIN), Brachiaria decumbens (BRADC), Centrus echinatus (CCHEC), Euphorbia heterophylla (EPPHL), Brachiaria plantaginea (BRAPL) and Glycine max (GLXMA; soybean). Fungicides and insecticides were used as necessary for plant health. The test was evaluated at 28 days after application with 100=total damage to plant and 0=no damage to plant.\nas §3"}, "[6]": {"test_system": "Ipomoea grandifolia (IAQGR)", "assay": "B3 drilled field trial Brazil, post-emergence, IAQGR", "settings": "28 days after application", "experimental": "as §4, §5, §3"}, "[7]": {"test_system": "Digitaria horizontalis (DIGHO)", "assay": "B3 drilled field trial Brazil, post-emergence, DIGHO", "settings": "28 days after application", "experimental": "as §4, §5, §3"}}, "data": [{"compound": "CCOC1C(O)N(c2cc(C(C)(C)C)on2)C(=O)N1C", "note": "(stereo not drawn) [Compound 1.4]", "values": [{"measurement": "AMAVI 7DAA Observed", "setting": "[1]; 75 g ai/ha", "result": 10}, {"measurement": "AMAVI 30 DAA Observed", "setting": "[1]; 75 g ai/ha", "result": 13}, {"measurement": "AMAVI 7DAA Observed", "setting": "[1]; 100 g ai/ha", "result": 20}, {"measurement": "AMAVI 30 DAA Observed", "setting": "[1]; 100 g ai/ha", "result": 20}, {"measurement": "AMAVI 7DAA Observed", "setting": "[1]; 150 g ai/ha", "result": 40}, {"measurement": "AMAVI 30 DAA Observed", "setting": "[1]; 150 g ai/ha", "result": 40}, {"measurement": "BIDPI 7DAA Observed", "setting": "Bidens pilosa (BIDPI); 75 g ai/ha", "result": 8}, {"measurement": "BIDPI 30 DAA Observed", "setting": "Bidens pilosa (BIDPI); 75 g ai/ha", "result": 8}, {"measurement": "BIDPI 7DAA Observed", "setting": "Bidens pilosa (BIDPI); 100 g ai/ha", "result": 10}, {"measurement": "BIDPI 30 DAA Observed", "setting": "Bidens pilosa (BIDPI); 100 g ai/ha", "result": 13}, {"measurement": "BIDPI 7DAA Observed", "setting": "Bidens pilosa (BIDPI); 150 g ai/ha", "result": 28}, {"measurement": "BIDPI 30 DAA Observed", "setting": "Bidens pilosa (BIDPI); 150 g ai/ha", "result": 20}, {"measurement": "EPPHL 7DAA Observed", "setting": "[2]; 75 g ai/ha", "result": 25}, {"measurement": "EPPHL 30 DAA Observed", "setting": "[2]; 75 g ai/ha", "result": 18}, {"measurement": "EPPHL 7DAA Observed", "setting": "[2]; 100 g ai/ha", "result": 30}, {"measurement": "EPPHL 30 DAA Observed", "setting": "[2]; 100 g ai/ha", "result": 25}, {"measurement": "EPPHL 7DAA Observed", "setting": "[2]; 150 g ai/ha", "result": 48}, {"measurement": "EPPHL 30 DAA Observed", "setting": "[2]; 150 g ai/ha", "result": 25}, {"measurement": "BRAPL 9DAA Observed", "setting": "[3]; 75 g ai/ha", "result": 18}, {"measurement": "BRAPL 37 DAA Observed", "setting": "[3]; 75 g ai/ha", "result": 0}, {"measurement": "BRAPL 9DAA Observed", "setting": "[3]; 100 g ai/ha", "result": 15}, {"measurement": "BRAPL 37 DAA Observed", "setting": "[3]; 100 g ai/ha", "result": 0}, {"measurement": "BRAPL 9DAA Observed", "setting": "[3]; 150 g ai/ha", "result": 23}, {"measurement": "BRAPL 37 DAA Observed", "setting": "[3]; 150 g ai/ha", "result": 0}, {"measurement": "GLXMA 9DAA Observed", "setting": "[4]; 75 g ai/ha", "result": 63}, {"measurement": "GLXMA 37 DAA Observed", "setting": "[4]; 75 g ai/ha", "result": 45}, {"measurement": "GLXMA 9DAA Observed", "setting": "[4]; 100 g ai/ha", "result": 55}, {"measurement": "GLXMA 37 DAA Observed", "setting": "[4]; 100 g ai/ha", "result": 0}, {"measurement": "GLXMA 9DAA Observed", "setting": "[4]; 150 g ai/ha", "result": 73}, {"measurement": "GLXMA 37 DAA Observed", "setting": "[4]; 150 g ai/ha", "result": 30}, {"measurement": "AMARE Second season Observed", "setting": "[5]; 50 g ai/ha", "result": 12}, {"measurement": "AMARE Summer season Observed", "setting": "[5]; 50 g ai/ha", "result": 73}, {"measurement": "AMARE Second season Observed", "setting": "[5]; 75 g ai/ha", "result": 14}, {"measurement": "AMARE Summer season Observed", "setting": "[5]; 75 g ai/ha", "result": 80}, {"measurement": "AMARE Second season Observed", "setting": "[5]; 100 g ai/ha", "result": 39}, {"measurement": "AMARE Summer season Observed", "setting": "[5]; 100 g ai/ha", "result": 90}, {"measurement": "AMARE Second season Observed", "setting": "[5]; 150 g ai/ha", "result": 52}, {"measurement": "AMARE Summer season Observed", "setting": "[5]; 150 g ai/ha", "result": 100}, {"measurement": "Observed damage (100=total damage to plant, 0=no damage)", "setting": "[6]; Second season, 50 g ai/ha", "result": 0}, {"measurement": "Observed damage (100=total damage to plant, 0=no damage)", "setting": "[6]; Second season, 75 g ai/ha", "result": 3}, {"measurement": "Observed damage (100=total damage to plant, 0=no damage)", "setting": "[6]; Second season, 100 g ai/ha", "result": 36}, {"measurement": "Observed damage (100=total damage to plant, 0=no damage)", "setting": "[6]; Second season, 150 g ai/ha", "result": 69}, {"measurement": "Observed damage (100=total damage to plant, 0=no damage)", "setting": "[6]; Summer season, 50 g ai/ha", "result": 33}, {"measurement": "Observed damage (100=total damage to plant, 0=no damage)", "setting": "[6]; Summer season, 75 g ai/ha", "result": 38}, {"measurement": "Observed damage (100=total damage to plant, 0=no damage)", "setting": "[6]; Summer season, 100 g ai/ha", "result": 68}, {"measurement": "Observed damage (100=total damage to plant, 0=no damage)", "setting": "[6]; Summer season, 150 g ai/ha", "result": 100}, {"measurement": "Observed damage (100=total damage to plant, 0=no damage)", "setting": "[7]; Second season, 50 g ai/ha", "result": 0}, {"measurement": "Observed damage (100=total damage to plant, 0=no damage)", "setting": "[7]; Second season, 75 g ai/ha", "result": 0}, {"measurement": "Observed damage (100=total damage to plant, 0=no damage)", "setting": "[7]; Second season, 100 g ai/ha", "result": 0}, {"measurement": "Observed damage (100=total damage to plant, 0=no damage)", "setting": "[7]; Second season, 150 g ai/ha", "result": 0}, {"measurement": "Observed damage (100=total damage to plant, 0=no damage)", "setting": "[7]; Summer season, 50 g ai/ha", "result": 23}]}]}
